Data on 4 compounds can be found in patent US20250257075A1, “MACROCYCLIC INHIBITORS OF KRAS FOR THE TREATMENT OF CANCER” (Hoffmann-La Roche Inc., priority 2022, published 2025).

SMILES strings stand for the structures. Where only a bound is given, the exact number is not on record here.

In experiment [1] the test system is phosphorylation of ERK, KRAS G12V in SW620. Briefly: pERK inhibition assay, G12V. The following applies: Homo sapiens, SW-620; SW620, 4 hours of incubation. Type of experiment: cell-based, human. The protocol: (§1) This assay is to measure the ability of test compounds in inhibiting the phosphorylation of ERK, the downstream signaling of KRAS G12C in NCI-H358 cells, KRAS G12D in AGS cells, and KRAS G12V in SW620. NCI-H358 (ATCC-CRL5807) cells, AGS (ATCC-CRL-1739) cells, SW620 (ATCC-CCL-227) cells were all grown and maintained using RPMI-1640 medium (Thermo Fisher Scientific) with 10% fetal bovine serum and 1% penicillin/streptomycin. On the day prior to compound addition, cells were plated in tissue culture-treated 96 well plates (Corning-3699) at a density of 30,000 cell/well, 20,000 cell/well, 30,000 cell/well for NCI-H358, AGS and SW620 respectively, and allowed for attachment overnight. Diluted compounds were then added in a final concentration of 0.5% DMSO. After 4 hours of incubation, the medium was removed, 100 μL of 4% formaldehyde was added, and the assay plates were incubated at room temperature for 20 minutes. The plates were then washed once with phosphate buffered saline (PBS), and permeabilized with 100 μL of chilled methanol for 10 minutes. Non-specific antibody binding to the plates was blocked using 50 μL 1×BSA blocking buffer (Thermo-37520, 10-fold dilution by Phosphate-Buffered Saline Tween (PBST) for at least 1 hour at room temperature.
(§2) The amount of phosphor-ERK was determined using an antibody specific for phosphorylated form of ERK. Primary antibody (pERK, CST-4370, Cell Signaling Technology) was diluted 1:300 in blocking buffer, with 50 μL aliquoted to each well, and incubated overnight at 4° C. Cells was washed five times for 5 minutes with PBST. Secondary antibody (HRP-linked anti-rabbit IgG, CST-7074, Cell Signaling Technology) was diluted 1:1000 in blocking buffer, and 50 μL was added to each well and incubated 1-2 hrs at room temperature. Cells was washed 5 times for 5 minutes with PBST, 100 μL TMB ELISA substrate (abcam-ab171523) were added and gently shake for 20 minutes. 50 μL stop solution (abcam-ab171529) were added, and then read the signal (OD450) by EnVision.
(§3) IC50 was determined by fitting a 4-parameter sigmoidal concentration response model.

Experiment [2] deals with T1, KRAS G12C-BRAF complex (Homo sapiens, UniProt P01116+P62937, G12C).
T1 construct: expressed in transfected cells
T1 sequence (P01116 1-188 isoform P01116-2 G12C): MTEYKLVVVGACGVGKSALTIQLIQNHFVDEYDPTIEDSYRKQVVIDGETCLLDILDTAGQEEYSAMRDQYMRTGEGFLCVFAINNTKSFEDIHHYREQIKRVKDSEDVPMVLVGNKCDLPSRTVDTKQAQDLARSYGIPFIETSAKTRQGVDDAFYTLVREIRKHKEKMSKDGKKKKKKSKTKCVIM
T1 sequence (P62937 whole entry): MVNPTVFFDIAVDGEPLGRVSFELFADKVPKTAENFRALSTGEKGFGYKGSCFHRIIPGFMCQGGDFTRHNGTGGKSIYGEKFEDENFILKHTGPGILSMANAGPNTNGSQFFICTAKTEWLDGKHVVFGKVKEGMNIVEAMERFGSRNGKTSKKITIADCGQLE
The experiment in a line: KRAS-BRAF with CYPA (500 nM) interaction assay (TR-FRET), G12C. Type of experiment: biochemical. The settings on record: 3 hours. The method, then: (§4) Kras-BRAF with CYPA (500 nM) Interaction Assay In this example, TR-FRET was also used to measure the compound or compound-CYPA dependent disruption of the KRAS G12C-BRAF complex. This protocol was also used to measure disruption of KRAS G12D or KRAS G12V binding to BRAF by a compound of the invention, respectively. […] TR-FRET signal was read on a […] microplate reader (Ex320 nm, Em 665/615 nm). Compounds that facilitate disruption of the KRAS-BRAF complex were identified as those eliciting a decrease in the TR-FRET ratio relative to DMSO control wells.

The target of experiment [3] is T1, KRAS G12C-BRAF complex. Briefly: KRAS G12C-BRAF NanoBit assay in HEK293 cells. In kind it is cell-based. The settings on record: HEK293 stable cell pool, 3 hours of incubation. The protocol:
This assay is to measure the ability of tested compounds in disruption of the KRAS G12C-BRAF complex at the cellular level, we established the NanoBit cellular assay in mammalian HEK293 (ATCC) cells. HEK293 cells were grown and maintained using DMEM medium (Thermo Fisher Scientific) with 10% fetal bovine serum and 1% penicillin/streptomycin. Both KRAS G12C and BRAF RBD were cloned into the NanoBit vectors ([…] vectors system, Promega) with the orientations SmBit-KRAS G12C and BRAF RBD-LgBit, respectively, and co-transfected into HEK293 cells. Cells were then selected with 100 μg/mL Hygromycin B (10687010, Thermo Fisher) and Blasticidin (5 μg/mL) for 4 weeks to get the stable cell pool. On the day of the assay, 75 nL of compound solution was presented in a 384-well assay plate as a 16-point 3-fold dilution starting from a final concentration of 30 μM in DMSO. Then cells were seeded at 10,000 cells/25 μL/well in a 384-well plate. After 3 hours of incubation, 6 μL of volume of Nano-Glo® Live Cell Substrate (Promega) was added into each well. Monitor luminescence using ultra384 model in Envision at 20 minutes. Compounds that facilitate disruption of the KRAS G12C-BRAF RBD complex were identified as those eliciting a decrease of luminescence relative to DMSO control wells.

Another experiment deals with SW620 cells (KRAS G12V). Briefly: Cell viability assay, G12V. Type of experiment: cell-based, human. The settings on record: Homo sapiens, SW-620; SW620, 72 hrs, Cell Counting Kit-8. The protocol: (§5) The purpose of this cellular assay was to determine the effects of test compounds on the proliferation of human cancer cell lines NCI-H358 (ATCC-CRL5807) cells, AGS (ATCC-CRL-1739) cells, SW620 (ATCC-CCL-227) over a 3-day treatment period by quantifying the amount of NADPH present at endpoint using Cell Counting Kit-8.
(§6) Cells were seeded at 5,000 cells/well (NCI-H358), 2,000 cells/well (AGS) 2,000 cells/well (SW620) in 96-well assay plates (Corning-3699) and incubated overnight. On the day of the assay, diluted compounds were then added in a final concentration of 0.5% DMSO. After 72 hrs incubation, a tenth of the volume of cell counting kit 8 (Dnjindo-CK04) was added into each well. Read the signal (OD450 minus OD650) using EnVision after 2 hrs incubation. IC50 was determined by fitting a 4-parameter sigmoidal concentration response model.

Experiment [4] has as its system NCI-H358 cells (KRAS G12C). Briefly: Cell viability assay, G12C. Type of experiment: cell-based, human. The settings on record: Homo sapiens; NCI-H358, 72 hrs, Cell Counting Kit-8. The method, then: as §5, §6
Experiment [5] deals with KRAS G12V binding to BRAF (Homo sapiens, UniProt P01116+P62937, G12V). The experiment in a line: KRAS-BRAF with CYPA (500 nM) interaction assay (TR-FRET), G12V. Type of experiment: biochemical. The settings on record: 3 hours. The protocol: as §4
Chain of KRAS G12V binding to BRAF (P01116 1-188 isoform P01116-2 G12V): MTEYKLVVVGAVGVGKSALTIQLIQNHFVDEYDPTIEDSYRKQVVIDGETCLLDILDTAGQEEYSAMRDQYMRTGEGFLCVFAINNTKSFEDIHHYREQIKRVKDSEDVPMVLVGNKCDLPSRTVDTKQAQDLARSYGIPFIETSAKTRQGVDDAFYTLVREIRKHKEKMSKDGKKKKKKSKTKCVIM
Chain of KRAS G12V binding to BRAF (P62937 whole entry): as the sequence (P62937 whole entry) above
A further experiment has as its system AGS cells (KRAS G12D). Briefly: Cell viability assay, G12D. In kind it is cell-based, human. The following applies: Homo sapiens, 72 hrs, Cell Counting Kit-8. The method, then: as §5, §6
Experiment [6] deals with phosphorylation of ERK, KRAS G12C in NCI-H358 cells. Briefly: pERK inhibition assay, G12C. In kind it is cell-based, human. The settings on record: Homo sapiens; NCI-H358, 4 hours of incubation. The protocol: as §1, §2, §3
The target of experiment [7] is KRAS G12D binding to BRAF (Homo sapiens, UniProt P01116+P62937, G12D). The experiment in a line: KRAS-BRAF with CYPA (500 nM) interaction assay (TR-FRET), G12D. In kind it is biochemical. The settings on record: 3 hours. The method, then: as §4
Chain of KRAS G12D binding to BRAF (P01116 1-188 isoform P01116-2 G12D): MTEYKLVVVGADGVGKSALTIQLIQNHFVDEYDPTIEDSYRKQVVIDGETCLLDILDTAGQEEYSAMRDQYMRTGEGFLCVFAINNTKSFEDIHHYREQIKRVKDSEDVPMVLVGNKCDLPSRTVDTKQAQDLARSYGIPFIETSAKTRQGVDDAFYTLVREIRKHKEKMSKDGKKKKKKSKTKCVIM
Chain of KRAS G12D binding to BRAF (P62937 whole entry): as the sequence (P62937 whole entry) above
Experiment [8] deals with phosphorylation of ERK, KRAS G12D in AGS cells. Briefly: pERK inhibition assay, G12D. Type of experiment: cell-based, human. The following applies: Homo sapiens, 4 hours of incubation. The protocol: as §1, §2, §3

For `CO[C@@H](C)c1ncc(N2CCN(C)CC2)cc1-c1c2c3cc(c(F)cc3n1CC(F)(F)F)-c1csc(n1)C[C@H](NC(=O)[C@H](C(C)C)N(C)C(=O)N1CC(C#CC(F)(F)F)C1)C(=O)N1CCC[C@H](N1)C(=O)OCC(C)(C)C2` (atropisomer, axis not shown; (M)) [Example 2, N-[(1S)-1-[[(7S,13S)-24-fluoro-(20M)-20-[2-[(1S)-1-methoxyethyl]-5-(4-methylpiperazin-1-yl)-3-pyridyl]-17,17-dimethyl-8,14-dioxo-21-(2,2,2-trifluoroethyl)-15-oxa-4-thia-9,21,27,28-tetrazapentacyclo[17.5.2.1^2,5.1^9,13.0^22,26]octacosa-1(25),2,5(28),19,22(26),23-hexaen-7-yl]carbamoyl]-2-methyl-propyl]-N-methyl-3-(3,3,3-trifluoroprop-1-ynyl)azetidine-1-carboxamide], the IC50 turned out to be 0.007 µM in experiment [1]; 1.79 µM at KRAS G12C-BRAF complex [2]; 0.018 µM against KRAS G12C-BRAF complex [3]; 0.01 µM with SW620 cells (KRAS G12V); 0.002 µM in experiment [4]; 6.74 µM in [5]. Also, the IC50 was 0.02 µM in the experiment on AGS cells (KRAS G12D), 0.013 µM in experiment [6] and > 10 µM in [7].

On to `CCn1c(-c2cc(N3CCN(C)CC3)cnc2[C@H](C)OC)c2c3cc(c(F)cc31)-c1csc(n1)C[C@H](NC(=O)[C@H](C(C)C)N(C)C(=O)[C@H]1C[C@@H](C#CC(F)(F)F)C1)C(=O)N1CCC[C@H](N1)C(=O)OCC(C)(C)C2` (atropisomer, axis not shown; (M)) [Example 6, cis-N-[(1S)-1-[[(7S,13S)-21-ethyl-24-fluoro-(20M)-20-[2-[(1S)-1-methoxyethyl]-5-(4-methylpiperazin-1-yl)-3-pyridyl]-17,17-dimethyl-8,14-dioxo-15-oxa-4-thia-9,21,27,28-tetrazapentacyclo[17.5.2.1^2,5.1^9,13.0^22,26]octacosa-1(25),2,5(28),19,22(26),23-hexaen-7-yl]carbamoyl]-2-methyl-propyl]-N-methyl-3-(3,3,3-trifluoroprop-1-ynyl)cyclobutanecarboxamide], for which the IC50 in [1] was 0.008 µM; against KRAS G12C-BRAF complex [2], 0.021 µM; at KRAS G12C-BRAF complex [3] it was 0.029 µM; in the experiment on SW620 cells (KRAS G12V), 4.73 µM; in [4] it was < 0.001 µM; in experiment [5], > 10 µM. The 50% inhibitory concentration (IC50) was 2.84 µM with AGS cells (KRAS G12D), 0.002 µM in [6] and > 10 µM in experiment [7].

For `CO[C@@H](C)c1ncc(N2CCN(CC(F)(F)F)CC2)cc1-c1c2c3cc(c(F)cc3n1CC(F)(F)F)-c1csc(n1)C[C@H](NC(=O)[C@H](C(C)C)N(C)C(=O)[C@H]1C[C@@H](C#CC(F)(F)F)C1)C(=O)N1CCC[C@H](N1)C(=O)OCC(C)(C)C2` (atropisomer, axis not shown; (M)) [Example 7, cis-N-[(1S)-1-[[(7S,13S)-24-fluoro-(20M)-20-[2-[(1S)-1-methoxyethyl]-5-[4-(2,2,2-trifluoroethyl)piperazin-1-yl]-3-pyridyl]-17,17-dimethyl-8,14-dioxo-21-(2,2,2-trifluoroethyl)-15-oxa-4-thia-9,21,27,28-tetrazapentacyclo[17.5.2.1^2,5.1^9,13.0^22,26]octacosa-1(25),2,5(28),19,22(26),23-hexaen-7-yl]carbamoyl]-2-methyl-propyl]-N-methyl-3-(3,3,3-trifluoroprop-1-ynyl)cyclobutanecarboxamide], the half-maximal inhibitory concentration (IC50) was 0.099 µM in experiment [1]; > 10 µM against KRAS G12C-BRAF complex [2]; 0.335 µM against KRAS G12C-BRAF complex [3]; > 5 µM with SW620 cells (KRAS G12V); 0.023 µM in experiment [4]; > 10 µM in experiment [5]. Moreover, the half-maximal inhibitory concentration (IC50) with AGS cells (KRAS G12D) is > 5 µM; in experiment [6], 1.1 µM; in [7] it was > 10 µM.

In the case of `CCn1c(-c2cc(N3CCOCC3)cnc2[C@H](C)OC)c2c3cc(c(F)cc31)-c1csc(n1)C[C@H](NC(=O)[C@H](C(C)C)N(C)C(=O)N1CC(C#CC(F)(F)F)C1)C(=O)N1CCCC(N1)C(=O)OCC(C)(C)C2` (stereo partly drawn) [Example 20, N-[(1S)-1-[[(7S,13S)-21-ethyl-24-fluoro-(20M)-20-[2-[(1S)-1-methoxyethyl]-5-morpholino-3-pyridyl]-17,17-dimethyl-8,14-dioxo-15-oxa-4-thia-9,21,27,28-tetrazapentacyclo[17.5.2.1^2,5.1^9,13.0^22,26]octacosa-1(25),2,5(28),19,22(26),23-hexaen-7-yl]carbamoyl]-2-methyl-propyl]-N-methyl-3-(3,3,3-trifluoroprop-1-ynyl)azetidine-1-carboxamide], the half-maximal inhibitory concentration (IC50) was 0.096 µM in [1]; 0.084 µM at KRAS G12C-BRAF complex [3]; 0.119 µM in the experiment with SW620 cells (KRAS G12V); 0.025 µM in [4]; 2.51 µM in [8]; > 10 µM in the experiment with AGS cells (KRAS G12D). The same compound showed an IC50 in experiment [6] of 0.093 µM.
